Measurements published in the CheMixHub ionic liquid set.
± gives the uncertainty stated by the source.

Experiment: xn = mol fraction of the nth substance listed

C[NH2+]CCC=C1c2ccccc2CCc2ccccc21.[Cl-] + CCCC[n+]1ccn(C)c1.[Br-] + O
viscosity [mPa·s], 100 kPa
Settings | 288.15 K | 298.15 K | 308.15 K | 318.15 K
x1 = 0.0001975, x2 = 0.0001801 | 1.159 ± 0.044 | 0.927 ± 0.043 | 0.763 ± 0.043 | 0.646 ± 0.042
x1 = 0.0002159, x2 = 0.00126 | 1.172 ± 0.044 | 0.944 ± 0.043 | 0.778 ± 0.043 | 0.661 ± 0.043
x1 = 0.0002212, x2 = 0.0007201 | 1.165 ± 0.044 | 0.934 ± 0.043 | 0.77 ± 0.043 | 0.654 ± 0.043
x1 = 0.0005439, x2 = 0.0001801 | 1.169 ± 0.044 | 0.936 ± 0.043 | 0.771 ± 0.043 | 0.655 ± 0.043
x1 = 0.0005594, x2 = 0.001259 | 1.182 ± 0.044 | 0.953 ± 0.043 | 0.787 ± 0.043 | 0.671 ± 0.043
x1 = 0.0005644, x2 = 0.0007199 | 1.176 ± 0.044 | 0.943 ± 0.043 | 0.779 ± 0.043 | 0.664 ± 0.043
x1 = 0.0009069, x2 = 0.0007196 | 1.187 ± 0.044 | 0.952 ± 0.043 | 0.788 ± 0.043 | 0.674 ± 0.043
x1 = 0.0009097, x2 = 0.00018 | 1.18 ± 0.044 | 0.946 ± 0.043 | 0.78 ± 0.043 | 0.664 ± 0.043
x1 = 0.0009344, x2 = 0.001259 | 1.193 ± 0.044 | 0.963 ± 0.043 | 0.796 ± 0.043 | 0.68 ± 0.043
x1 = 0.001275, x2 = 0.001258 | 1.204 ± 0.044 | 0.973 ± 0.043 | 0.805 ± 0.043 | 0.689 ± 0.043
x1 = 0.001278, x2 = 0.0001799 | 1.192 ± 0.044 | 0.956 ± 0.043 | 0.789 ± 0.043 | 0.673 ± 0.043
x1 = 0.001293, x2 = 0.0007194 | 1.199 ± 0.044 | 0.961 ± 0.043 | 0.797 ± 0.043 | 0.682 ± 0.043
x1 = 0.001648, x2 = 0.0007191 | 1.211 ± 0.044 | 0.971 ± 0.043 | 0.806 ± 0.043 | 0.691 ± 0.043
x1 = 0.001659, x2 = 0.0001799 | 1.204 ± 0.044 | 0.967 ± 0.043 | 0.798 ± 0.043 | 0.681 ± 0.043
x1 = 0.001665, x2 = 0.001258 | 1.216 ± 0.044 | 0.984 ± 0.043 | 0.814 ± 0.043 | 0.698 ± 0.043
x1 = 0.002, x2 = 0.0001798 | 1.217 ± 0.044 | 0.978 ± 0.043 | 0.807 ± 0.043 | 0.689 ± 0.043
x1 = 0.002031, x2 = 0.0007188 | 1.224 ± 0.044 | 0.982 ± 0.043 | 0.815 ± 0.043 | 0.699 ± 0.043
x1 = 0.002035, x2 = 0.001257 | 1.229 ± 0.044 | 0.995 ± 0.043 | 0.823 ± 0.043 | 0.707 ± 0.043
x1 = 0.002363, x2 = 0.0001797 | 1.23 ± 0.044 | 0.989 ± 0.043 | 0.816 ± 0.043 | 0.697 ± 0.043
x1 = 0.002378, x2 = 0.001257 | 1.243 ± 0.044 | 1.006 ± 0.043 | 0.832 ± 0.043 | 0.715 ± 0.043
x1 = 0.002383, x2 = 0.0007186 | 1.237 ± 0.044 | 0.993 ± 0.043 | 0.824 ± 0.043 | 0.707 ± 0.043
x1 = 0.002737, x2 = 0.0001797 | 1.244 ± 0.044 | 1 ± 0.043 | 0.826 ± 0.043 | 0.705 ± 0.043
x1 = 0.00275, x2 = 0.001256 | 1.257 ± 0.044 | 1.018 ± 0.043 | 0.842 ± 0.043 | 0.723 ± 0.043
x1 = 0.002759, x2 = 0.0007183 | 1.251 ± 0.044 | 1.005 ± 0.043 | 0.834 ± 0.043 | 0.715 ± 0.043
x1 = 0.003096, x2 = 0.001256 | 1.272 ± 0.044 | 1.03 ± 0.043 | 0.853 ± 0.043 | 0.731 ± 0.043
x1 = 0.003103, x2 = 0.0001796 | 1.258 ± 0.044 | 1.012 ± 0.043 | 0.836 ± 0.043 | 0.713 ± 0.043
x1 = 0.00311, x2 = 0.000718 | 1.265 ± 0.044 | 1.019 ± 0.043 | 0.845 ± 0.043 | 0.723 ± 0.043
x1 = 0.003471, x2 = 0.0001795 | 1.273 ± 0.044 | 1.024 ± 0.043 | 0.847 ± 0.043 | 0.721 ± 0.043
x1 = 0.003493, x2 = 0.001255 | 1.287 ± 0.044 | 1.043 ± 0.043 | 0.864 ± 0.043 | 0.738 ± 0.043
x1 = 0.003504, x2 = 0.0007178 | 1.28 ± 0.044 | 1.033 ± 0.043 | 0.856 ± 0.043 | 0.731 ± 0.043

CCC(=O)[O-].C[N+](C)(C)CCO + CCCO + O
100 kPa, x1 = 0.00408, x2 = 0.5431
Settings | viscosity [mPa·s]
288.15 K | 3.537 ± 0.039
298.15 K | 2.571 ± 0.028
308.15 K | 1.931 ± 0.021

CCCC[n+]1ccn(C)c1.[Br-] + CCCOCCO
viscosity [mPa·s], 100 kPa
Settings | x1 = 0.1001 | x1 = 0.2003 | x1 = 0.2994 | x1 = 0.4 | x1 = 0.5002 | x1 = 0.6002 | x1 = 0.701 | x1 = 0.7969 | x1 = 0.9003 | x1 = 1
298.15 K | 15.5 ± 1.7 | 50 ± 5.2 | 100 ± 10 | 152 ± 16 | 204 ± 22 | 270 ± 29 | 378 ± 42 | 560 ± 64 | 910 ± 110 | 1451 ± 180
303.15 K | 10.3 ± 1.1 | 28.9 ± 3 | 53.7 ± 5.6 | 81.1 ± 8.5 | 110 ± 12 | 148 ± 16 | 206 ± 22 | 305 ± 34 | 503 ± 58 | 837 ± 99
308.15 K | 7.54 ± 0.78 | 19.1 ± 2 | 35.1 ± 3.6 | 52 ± 5.3 | 69.9 ± 7.2 | 92.1 ± 9.6 | 126 ± 13 | 180 ± 19 | 293 ± 32 | 506 ± 57
313.15 K | 6 ± 0.62 | 14.5 ± 1.5 | 25.9 ± 2.7 | 37 ± 3.8 | 48.8 ± 5 | 61.7 ± 6.4 | 81.8 ± 8.5 | 114 ± 12 | 184 ± 20 | 330 ± 37

CS(C)=O + CCC[N+]1(C)CCCC1.O=S(=O)([N-]S(=O)(=O)C(F)(F)F)C(F)(F)F
101 kPa, x2 = 0
Settings | viscosity [mPa·s]
298.15 K | 2.118 ± 0.085
308.15 K | 1.758 ± 0.071
318.15 K | 1.489 ± 0.06
328.15 K | 1.28 ± 0.052
338.15 K | 1.116 ± 0.045
348.15 K | 0.983 ± 0.04
358.15 K | 0.874 ± 0.036

COS(=O)(=O)[O-].Cn1cc[n+](C)c1 + CCO
Settings | viscosity [mPa·s]
328.15 K, 100 kPa, x2 = 0.945 | 0.96 ± 0.4

CCCC[n+]1ccn(C)c1.[Br-] + CCOCCO
viscosity [mPa·s], 100 kPa
Settings | x1 = 0.1002 | x1 = 0.2001 | x1 = 0.3007 | x1 = 0.3992 | x1 = 0.5001 | x1 = 0.5986 | x1 = 0.7001 | x1 = 0.8005 | x1 = 0.9002 | x1 = 1
298.15 K | 12.5 ± 1.4 | 42.5 ± 4.4 | 88.9 ± 9.2 | 139 ± 14 | 191 ± 20 | 253 ± 27 | 356 ± 39 | 541 ± 62 | 880 ± 100 | 1451 ± 180
303.15 K | 8.68 ± 0.91 | 25.6 ± 2.7 | 51.1 ± 5.3 | 78.5 ± 8.2 | 108 ± 11 | 142 ± 15 | 197 ± 21 | 295 ± 33 | 480 ± 55 | 837 ± 99
308.15 K | 6.44 ± 0.67 | 17.4 ± 1.8 | 32.8 ± 3.4 | 50 ± 5.1 | 67 ± 6.9 | 87.1 ± 9.1 | 117 ± 12 | 171 ± 18 | 278 ± 31 | 506 ± 57
313.15 K | 5.02 ± 0.52 | 12.5 ± 1.3 | 23 ± 2.4 | 34.3 ± 3.5 | 45.3 ± 4.7 | 58.1 ± 6 | 75.6 ± 7.9 | 108 ± 11 | 171 ± 18 | 330 ± 37

COS(=O)(=O)[O-].Cn1cc[n+](C)c1 + CCOCCO
viscosity [mPa·s], 101 kPa
Settings | x1 = 0.0009004 | x1 = 0.002248 | x1 = 0.003592 | x1 = 0.004932 | x1 = 0.006269 | x1 = 0.007602
293.15 K | 2.1 ± 0.026 | 2.12 ± 0.027 | 2.14 ± 0.026 | 2.16 ± 0.027 | 2.18 ± 0.026 | 2.21 ± 0.026
303.15 K | 1.64 ± 0.024 | 1.66 ± 0.024 | 1.68 ± 0.024 | 1.71 ± 0.024 | 1.73 ± 0.024 | 1.75 ± 0.024
313.15 K | 1.27 ± 0.023 | 1.29 ± 0.023 | 1.32 ± 0.023 | 1.34 ± 0.023 | 1.37 ± 0.023 | 1.39 ± 0.023

CCCC[n+]1ccc(C)cc1.O=S(=O)([N-]S(=O)(=O)C(F)(F)F)C(F)(F)F + CCOS(=O)(=O)[O-].CC[n+]1ccn(C)c1
100 kPa
Settings | viscosity [mPa·s]
293.15 K, x2 = 0.1177 | 86.8 ± 2.6
293.15 K, x2 = 0.3341 | 116.8 ± 4.2
293.15 K, x2 = 0.558 | 145 ± 5.9
303.15 K, x2 = 0.558 | 86.5 ± 2.6
303.15 K, x2 = 0.7776 | 89.6 ± 2.7
313.15 K, x2 = 0.3341 | 46.2 ± 1.2
313.15 K, x2 = 0.6663 | 58.1 ± 1.5
313.15 K, x2 = 0.9487 | 53.1 ± 1.3
323.15 K, x2 = 0.6663 | 39.8 ± 1
323.15 K, x2 = 0.7776 | 39.6 ± 1
333.15 K, x2 = 0.1177 | 18.6 ± 0.5
333.15 K, x2 = 0.3341 | 23.1 ± 0.6
333.15 K, x2 = 0.558 | 27.4 ± 0.7
333.15 K, x2 = 0.6663 | 28.5 ± 0.7
343.15 K, x2 = 0.0475 | 13 ± 0.3
343.15 K, x2 = 0.1177 | 14 ± 0.4
343.15 K, x2 = 0.6663 | 21 ± 0.5
343.15 K, x2 = 0.7776 | 21 ± 0.5
343.15 K, x2 = 0.9487 | 19.9 ± 0.5
353.15 K, x2 = 0.0475 | 10.3 ± 0.3
353.15 K, x2 = 0.226 | 12.2 ± 0.3
